The text below walks through data of patent publication US3954730A, “6-(Substituted-cycloalkylcarboxamide) penicillanic acids” (Bayer Aktiengesellschaft, priority 1973, dated 1976).

Counter-ions that a name gives are not always drawn.

One assay relates to Ent. ATCC 9790. The assay is described as follows: Minimum inhibitory concentration (MIC) in vitro, liquid medium test tube series dilution test. Type of assay: cell-based, Enterococcus. Conditions: 24 hours incubation at 37° C. On the procedure: (§1) They were determined in a liquid medium in a test tube series dilution test, the readings being taken after 24 hours incubation at 37° C.
(§2) The numbers allotted to the compounds of the invention in Table 1 correspond to the numbers of the Preparative Examples in which the preparation of the particular compounds are described.
(§3) The MIC is indicated by the non-turbid test tube in the dilution series. A complete medium of the following composition was used as the growth medium: […]

The test system of the next assay is E. coli 14. Described as above. The format is cell-based. The settings on record: 24 hours incubation at 37° C. The protocol:
as §1, §2, §3

Another assay concerns Staph. aureus 133. Described as above. The format is cell-based. Conditions: 24 hours incubation at 37° C. The protocol: (§4) Table 1, which follows, specifies the minimum inhibitory concentrations (MIC) in vitro, in U/ml of nutrient medium of typical compounds of the invention. They were determined in a liquid medium in a test tube series dilution test, the readings being taken after 24 hours incubation at 37° C.
as §2, §3

The subject of the next assay is Staph. aureus 1756. The description is as above. The format is cell-based. The settings on record: 24 hours incubation at 37° C. The protocol:
as §4, §2, §3

The next assay has as its system E. coli C 165. The description is as above. Type of assay: cell-based. Conditions: 24 hours incubation at 37° C. On the procedure:
as §4, §2, §3

In a further assay the test system is Bordetella bronciseptica. In words: Turbidity test in Muller-Hinton nutrient broth at 100 μg/ml. Type of assay: cell-based.
In assay [1] the test system is Diplococcus pneumoniae sp. The description is as above. The format is cell-based.
The next assay has as its system Salmonella sp. The description is as above. Type of assay: cell-based.
The next assay deals with Enterococcus sp. Described as above. The format is cell-based.
For the next assay, the system named is Haemophilus influenzae. The description is as above. Type of assay: cell-based.
Another assay concerns E. coli BE. The description is as above. The settings on record: 24 hours. The format is cell-based.
Assay [2] has as its system Staphylococcus aureus 133. The assay is described as above. The format is cell-based.
Assay [3] deals with Neisseria catarrhalis sp. Described as above. The format is cell-based.
The test system of assay [4] is Streptococcus pyogenes W. The description is as above. Type of assay: cell-based.
The next assay relates to Clostridium botulinium. The format is cell-based.
The subject of another assay is Clostridium tetani. The format is cell-based. Conditions: 100 μg/ml, 24 hours.
The test system of another assay is Lactobacillus sp. The assay is described as follows: Turbidity test in Muller-Hinton nutrient broth at 100 μg/ml. Type of assay: cell-based.
The next assay concerns Shigella sp. The assay is described as above. The format is cell-based.
In assay [5] the test system is Corynebacterium diphteriae gravis. Described as above. The format is cell-based.
In assay [6] the test system is Proteus indolnegativ, sp. Described as above. The format is cell-based.
Assay [7] concerns Pasteurella pseudotuberculosis. The format is cell-based. Conditions: 100 μg/ml, 24 hours.
The test system of assay [8] is Corynebacterium pyrogenes M. In words: Turbidity test in Muller-Hinton nutrient broth at 100 μg/ml. The format is cell-based.
A further assay relates to Brucella sp. Type of assay: cell-based. The settings on record: 100 μg/ml, 24 hours.

Regarding `CC1(C)S[C@@H]2[C@H](NC(=O)C3(C#N)CCC3)C(=O)N2[C@H]1C(=O)O` [Example 5, sodium salt of 6(1-cyano-1-cyclobutylcarboxamido)-penicillanic acid], the MIC in the assay on Ent. ATCC 9790 is on record as 8 U/ml; in the assay on E. coli 14 it was 32-64 U/ml; against Staph. aureus 133, 0.2 U/ml; in the assay on Staph. aureus 1756, 128 U/ml; against E. coli C 165, 128 U/ml.

For the compound `CC1(C)S[C@@H]2[C@H](NC(=O)C3CCC(Cl)C3)C(=O)N2[C@H]1C(=O)O` (some centres unmarked) [Example 6, sodium salt of 6-(4-chloro-1-cyclopentylcarboxamide)-penicillanic acid], the MIC against Ent. ATCC 9790 is listed as 8-16 U/ml; in the assay with E. coli 14, 32 U/ml; against Staph. aureus 133, 0.1 U/ml; in the assay with Staph. aureus 1756 it was 32-64 U/ml; against E. coli C 165 it was 128 U/ml.

Turning to `CC1(C)S[C@@H]2[C@H](NC(=O)C3(C)CC3(Br)Br)C(=O)N2[C@H]1C(=O)O` (some centres unmarked) [Example 2, sodium salt of 6-(2,2-dibromo-1-methyl-cyclopropyl-carboxamido)-penicillanic acid], the MIC against Ent. ATCC 9790 is 32 U/ml; in the assay with E. coli 14, 128 U/ml; in the assay on Staph. aureus 133, 0.2 U/ml; in the assay on Staph. aureus 1756, 128 U/ml.

Turning to `CC1(C)S[C@@H]2[C@H](NC(=O)C3CC(Cl)C(Cl)C3)C(=O)N2[C@H]1C(=O)O` (some centres unmarked) [Example 7, sodium salt of 6-(3,4-dichlorocyclopentylcarboxamido)-penicillanic acid], the MIC against Ent. ATCC 9790 is 8-16 U/ml; against E. coli 14, 32 U/ml; against Staph. aureus 133, 0.1 U/ml; against Staph. aureus 1756, 32-64 U/ml; against E. coli C 165 it was 128 U/ml.

In the case of `CC1(C)S[C@@H]2[C@H](NC(=O)C3(C)CC3(Cl)Cl)C(=O)N2[C@H]1C(=O)O` (some centres unmarked) [Example 1, sodium salt of 6-(2,2-dichloro-1-methyl-cyclopropylcarboxamido)-penicillanic acid], the “freedom from turbidity (anti-bacterial action)” value (“freedom from turbidity” below) (with Bordetella bronciseptica; in assay [1]; with Salmonella sp.; with Enterococcus sp.; in the assay with Haemophilus influenzae; in the assay with E. coli BE) was “free from turbidity” each time. The “freedom from turbidity” value (in [2]; in assay [3]; in assay [4]; in the assay with Clostridium botulinium; in the assay with Clostridium tetani; in the assay with Lactobacillus sp.) was “free from turbidity” each time. Moreover, the “freedom from turbidity” value (with Shigella sp.; in assay [5]; in assay [6]; in assay [7]; in [8]; in the assay on Brucella sp.) was “free from turbidity” each time. Besides, the MIC is 16-32 U/ml in the assay with Ent. ATCC 9790, 128 U/ml in the assay with E. coli 14, 0.2 U/ml with Staph. aureus 133 and 32-64 U/ml in the assay on Staph. aureus 1756.

In the case of `CC1(C)S[C@@H]2[C@H](NC(=O)C3(Cl)CCCC3=O)C(=O)N2[C@H]1C(=O)O` (some centres unmarked) [Example 8, Sodium salt of 6-(cyclopentanone-2-chloro-2-carboxamido)-penicillanic acid], the MIC is recorded as 128 U/ml in the assay with Ent. ATCC 9790, 128 U/ml against E. coli 14 and 2-4 U/ml in the assay with Staph. aureus 133.

Consider `CC1(C)S[C@@H]2[C@H](NC(=O)C3CCC(Cl)CC3)C(=O)N2[C@H]1C(=O)O` (some centres unmarked) [Example 9, sodium salt of 6-(4-chloro-1-cyclohexylcarboxamido)-penciillanic acid], for which the MIC against Ent. ATCC 9790 is 8-16 U/ml; with E. coli 14, 64 U/ml; in the assay on Staph. aureus 133, 0.1 U/ml; in the assay with Staph. aureus 1756, 64 U/ml.

Consider `CC1(C)S[C@@H]2[C@H](NC(=O)C3CC3C#N)C(=O)N2[C@H]1C(=O)O` (some centres unmarked) [Example 3, sodium salt of 6-(2-cyano-1-cyclopropylcarboxamido)-penicillanic acid], for which the MIC is on record as 64-128 U/ml against Ent. ATCC 9790, 128-256 U/ml in the assay on E. coli 14 and 2-4 U/ml against Staph. aureus 133.

For the compound `CC1(C)S[C@@H]2[C@H](NC(=O)C3CC(Cl)C3)C(=O)N2[C@H]1C(=O)O` (some centres unmarked) [Example 4, sodium salt of 6-(3-chloro-cyclobutylcarboxamido)-penicillanic acid], the MIC against Ent. ATCC 9790 is 8-16 U/ml; with E. coli 14 it was 32-64 U/ml; in the assay with Staph. aureus 133 it was 2-4 U/ml; against Staph. aureus 1756, 32-64 U/ml; against E. coli C 165, 128-256 U/ml.
